Converted amounts (≈) assume the structure as drawn. The source made the active and inactive calls. The rule behind the calls is not given here.
What was measured:
[1] = Cytotoxicity against human Jurkat cells after 72 hrs by MTT assay; assay type: cell-based; conditions: read-out: CD50
[2] = test system: Mycobacterium tuberculosis; assay: Bacteriostatic activity against Mycobacterium tuberculosis H37Rv assessed as growth inhibition at 5 ug/mL relative to control; assay type: functional; conditions: read-out: GI
[3] = test system: Mycobacterium tuberculosis; assay: Bacteriostatic activity against Mycobacterium tuberculosis H37Rv assessed as growth inhibition at 20 ug/mL relative to control; assay type: functional; conditions: read-out: GI
[4] = Cytotoxicity against African green monkey Vero cells after 72 hrs by MTT assay; assay type: cell-based; conditions: chlorocebus sabaeus, read-out: CD50
[5] = Cytotoxicity against human A549 cells after 72 hrs by MTT assay; assay type: cell-based; conditions: read-out: CD50
[6] = test system: Mycobacterium tuberculosis; assay: Bacteriostatic activity against Mycobacterium tuberculosis H37Rv assessed as growth inhibition; assay type: functional
[7] = test system: Mycobacterium tuberculosis; assay: Bacteriostatic activity against Mycobacterium tuberculosis H37Rv assessed as growth inhibition at 10 ug/mL relative to control; assay type: functional; conditions: read-out: GI
[8] = test system: Leuconostoc mesenteroides; assay: Antibacterial activity against vancomycin-resistant Leuconostoc mesenteroides VKPM B-4177; assay type: functional
[9] = test system: Staphylococcus aureus; assay: Antibacterial activity against methicillin-resistant Staphylococcus aureus INA 00761; assay type: functional, organism-based
[10] = test system: Bacillus mycoides; assay: Antibacterial activity against Bacillus mycoides 537; assay type: functional, organism-based
[11] = test system: Aspergillus niger; assay: Antifungal activity against Aspergillus niger INA 00760; assay type: functional, organism-based
[12] = test system: Bacillus subtilis; assay: Antibacterial activity against Bacillus subtilis ATCC 6633; assay type: functional, organism-based
[13] = test system: Staphylococcus aureus; assay: Antibacterial activity against methicillin-susceptible Staphylococcus aureus FDA 209P; assay type: functional, organism-based
[14] = test system: Escherichia coli; assay: Antibacterial activity against Escherichia coli ATCC 25922; assay type: functional, organism-based
[15] = test system: Mycobacterium tuberculosis; assay: Bacteriostatic activity against Mycobacterium tuberculosis H37Rv assessed as growth inhibition at 40 ug/mL relative to control; assay type: functional; conditions: read-out: GI
[16] = test system: Micrococcus luteus; assay: Antibacterial activity against Micrococcus luteus NCTC 8340; assay type: functional, organism-based
[17] = test system: Bacillus pumilus; assay: Antibacterial activity against Bacillus pumilus NCTC 8241; assay type: functional, organism-based
[18] = test system: Saccharomyces cerevisiae; assay: Antifungal activity against Saccharomyces cerevisiae RIA 259; assay type: functional, organism-based
[19] = test system: Pseudomonas aeruginosa; assay: Antibacterial activity against Pseudomonas aeruginosa ATCC 27853; assay type: functional, organism-based
[20] = test system: Mycobacterium tuberculosis; assay: Bacteriostatic activity against Mycobacterium tuberculosis H37Rv assessed as growth inhibition at 100 ug/mL relative to control; assay type: functional; conditions: read-out: GI
[21] = test system: Mycobacterium tuberculosis; assay: Bacteriostatic activity against Mycobacterium tuberculosis H37Rv assessed as growth inhibition at 50 ug/mL relative to control; assay type: functional; conditions: read-out: GI

SMILES | CC50 at 72 h [1] | inhibition of growth at 5 µg/mL [2] | inhibition of growth at 20 µg/mL [3] | CC50 at 72 h [4] | CC50 at 72 h [5] | MIC99 [6] | inhibition of growth at 10 µg/mL [7] | Activity [8] | Activity [9] | Activity [10] | Activity [11] | Activity [12] | Activity [13] | Activity [14] | inhibition of growth at 40 µg/mL [15] | Activity [16] | Activity [17] | Activity [18] | Activity [19] | inhibition of growth at 50 µg/mL [21] | also measured
CCCCCCCCCCCCc1cn(Cc2cn([C@H]3C[C@H](O)[C@@H](CO)O3)c(=O)nc2N)nn1 | 100 µg/mL (≈ 210 µM) | 75% | 100% | > 100 µg/mL | 100 µg/mL (≈ 210 µM) | 10 µg/mL (≈ 21 µM) | 99% |  |  |  |  |  |  |  |  |  |  |  |  |  | 
CCCCCCCCCCOCc1cn([C@H]2C[C@H](O)[C@@H](CO)O2)c(=O)[nH]c1=O |  |  |  | > 100 µg/mL |  | 40 µg/mL (≈ 100 µM) |  | inactive | inactive | inactive | inactive | inactive | inactive | inactive | 99% | inactive | inactive | inactive | inactive |  | 
CCCCCCCCCCc1cn(Cc2cn([C@H]3C[C@H](O)[C@@H](CO)O3)c(=O)[nH]c2=O)nn1 | 100 µg/mL (≈ 222 µM) | 90% |  | > 100 µg/mL | 100 µg/mL (≈ 222 µM) | 10 µg/mL (≈ 22.2 µM) | 100% | inactive | inactive | inactive | inactive | inactive | inactive | inactive |  | inactive | inactive | inactive | inactive |  | 
CCCCCCCCc1cn(Cc2cn([C@H]3C[C@H](O)[C@@H](CO)O3)c(=O)nc2N)nn1 | > 100 µg/mL |  | 90% | > 100 µg/mL | > 100 µg/mL | 40 µg/mL (≈ 95.1 µM) |  |  |  |  |  |  |  |  | 100% |  |  |  |  |  | 
CCCCCCCCCCCCOCc1cn([C@H]2C[C@H](NCC)[C@@H](CO)O2)c(=O)[nH]c1=O | 5 µg/mL (≈ 11 µM) | 75% | 100% | 13 µg/mL (≈ 28.7 µM) | 5 µg/mL (≈ 11 µM) | 10 µg/mL (≈ 22 µM) | 99% |  |  |  |  |  |  |  |  |  |  |  |  | 100% | inhibition of growth at 100 µg/mL [20]: 100%
CCCCCCCCCCCCOCc1cn([C@H]2C[C@H](O)[C@@H](CN)O2)c(=O)[nH]c1=O | 7 µg/mL (≈ 16.4 µM) |  | 100% | 14 µg/mL (≈ 32.9 µM) | 8 µg/mL (≈ 18.8 µM) | 20 µg/mL (≈ 47 µM) | 50% |  |  |  |  |  |  |  |  |  |  |  |  | 100% | inhibition of growth at 100 µg/mL [20]: 100%
CCCCCCCCCCCCc1cn(Cc2cn([C@H]3C[C@H](O)[C@@H](CO)O3)c(=O)[nH]c2=O)nn1 | > 100 µg/mL | 90% | 99% | > 100 µg/mL | > 100 µg/mL | 10 µg/mL (≈ 20.9 µM) | 99% | inactive | inactive | inactive | inactive | inactive | inactive | inactive | 100% | inactive | inactive | inactive | inactive |  | 
CCCCCCCCCCCCOCc1cn([C@H]2C[C@H](O)[C@@H](CI)O2)c(=O)[nH]c1=O | > 100 µg/mL | 90% | 100% | 70 µg/mL (≈ 130 µM) | > 100 µg/mL | 10 µg/mL (≈ 18.6 µM) | 100% |  |  |  |  |  |  |  |  |  |  |  |  | 100% | 
CCCCCCCCCCc1cn(Cc2cn([C@H]3C[C@H](O)[C@@H](CO)O3)c(=O)nc2N)nn1 | 100 µg/mL (≈ 223 µM) |  | 90% | > 100 µg/mL | 100 µg/mL (≈ 223 µM) | 40 µg/mL (≈ 89.2 µM) |  |  |  |  |  |  |  |  | 100% |  |  |  |  |  | 
CCCCCCCCCCCCOCc1cn([C@H]2C[C@H](N(CC)CC)[C@@H](CO)O2)c(=O)[nH]c1=O | 5 µg/mL (≈ 10.4 µM) |  | 99% | 7.5 µg/mL (≈ 15.6 µM) | 5 µg/mL (≈ 10.4 µM) | 20 µg/mL (≈ 41.5 µM) | 75% |  |  |  |  |  |  |  |  |  |  |  |  | 100% | inhibition of growth at 100 µg/mL [20]: 100%
CCCCCCCCCCCOCc1cn([C@H]2C[C@H](O)[C@@H](CO)O2)c(=O)[nH]c1=O | 70 µg/mL (≈ 170 µM) |  | 99% | > 100 µg/mL | 90 µg/mL (≈ 218 µM) | 20 µg/mL (≈ 48.5 µM) |  | inactive | inactive | inactive | inactive | inactive | inactive | inactive | 100% | inactive | inactive | inactive | inactive |  | 
CCCCCCCCc1cn(Cc2cn([C@H]3C[C@H](O)[C@@H](CO)O3)c(=O)[nH]c2=O)nn1 | > 100 µg/mL |  | 99% | > 100 µg/mL | > 100 µg/mL | 20 µg/mL (≈ 47.4 µM) | 90% | inactive | inactive | inactive | inactive | inactive | inactive | inactive | 100% | inactive | inactive | inactive | inactive |  | 
CCCCCCCCCCCCOCc1cn([C@H]2C[C@H](O)[C@@H](CN=[N+]=[N-])O2)c(=O)[nH]c1=O | 18 µg/mL (≈ 39.9 µM) | 75% | 100% | > 100 µg/mL | 20 µg/mL (≈ 44.3 µM) | 10 µg/mL (≈ 22.1 µM) | 99% |  |  |  |  |  |  |  |  |  |  |  |  | 100% | inhibition of growth at 100 µg/mL [20]: 100%
CCCCCCCCCCCCOCc1cn([C@H]2C[C@H](N)[C@@H](CO)O2)c(=O)[nH]c1=O | 7 µg/mL (≈ 16.4 µM) |  | 90% | 50 µg/mL (≈ 117 µM) | 8 µg/mL (≈ 18.8 µM) | > 20 µg/mL | 25% |  |  |  |  |  |  |  |  |  |  |  |  |  | 
NNC(=O)c1ccncc1 [ISONIAZID] |  |  |  |  |  | 0.1 µg/mL (≈ 0.729 µM) |  |  |  |  |  |  |  |  |  |  |  |  |  |  | 
CC1COc2c(N3CCN(C)CC3)c(F)cc3c(=O)c(C(=O)O)cn1c23 (centres undefined) [OFLOXACIN] |  |  |  |  |  | 2 µg/mL (≈ 5.53 µM) |  |  |  |  |  |  |  |  |  |  |  |  |  |  | 
